Reference: patent publication EP0796041B1, “NEW HERBICIDAL COMPOSITIONS” (RHONE-POULENC AGRO, priority 1994, dated 1996)

Assays:
Assay in all cases: Field trial Europe (Experiment A1), pre-emergence weed control in maize
Type in all cases: in vivo
Setaria viridis = details: BOLOGNA, 54DAT
Procedure: (§1) The following experiments were conducted on Compound A and Compound B in various field research stations in Europe during May. Compound A (as a 750 g/kg water dispersible granule formulation) and Compound B (as a 600 g/kg water dispersible granule formulation) were tested at the following dose rates (note that hereafter ai means active ingredient): Compound A : 50, 75, 100, 125 g ai/ha Compound B : 240, 360, 480, 600 g ai/ha Compound A + Compound B : 50 + 240/360/480 g ai/ha 75 + 240/360/480 g ai/ha 100 + 240/360/480 g ai/ha Trial and application conditions are given below in Table 1 (in the Tables that follow DAT means days after treatment): Table 1 [table] Weeds were drilled on the same day as maize. All trials were sprayed pre-emergence of the maize on the same day as drilling or within 2 days afterwards. Soil conditions were warm and wet, so that the crop and weeds emerged and grew quickly. Rainfall or irrigation occurred within 15 days of application. In this Table "Obs" is the observed value the value in brackets (Exp) is the expected value calculated using the Colby formula.

Amaranthus retroflexus = details: ALZONNE, 46DAT
Procedure: as §1

Echinochloa crus-galli = tested on: Echinochloa crus-galli
Procedure: as §1

Polygonum lapathifolium = details: CHAZAY, 64DAT
Procedure: as §1

## CS(=O)(=O)c1cc(C(F)(F)F)ccc1C(=O)c1cnoc1C1CC1 [Cpd A, 5-cyclopropyl-4-(2-methylsulphonyl-4-trifluoromethyl)benzoylisozaxole]
Setaria viridis; Cpd A 50 g a.i./ha
  percentage phytotoxicity Obs: 62%
Setaria viridis; Cpd A 75 g a.i./ha
  percentage phytotoxicity Obs: 82%
Setaria viridis; Cpd A 100 g a.i./ha
  percentage phytotoxicity Obs: 82%
Setaria viridis; Cpd A 125 g a.i./ha
  percentage phytotoxicity Obs: 97%
Amaranthus retroflexus; Cpd A 50 g a.i./ha
  percentage phytotoxicity Obs: 72%
Amaranthus retroflexus; Cpd A 75 g a.i./ha
  percentage phytotoxicity Obs: 70%
Amaranthus retroflexus; Cpd A 100 g a.i./ha
  percentage phytotoxicity Obs: 80%
Amaranthus retroflexus; Cpd A 125 g a.i./ha
  percentage phytotoxicity Obs: 95%
Echinochloa crus-galli; ALZONNE, 46DAT, Cpd A 50 g a.i./ha
  percentage phytotoxicity Obs: 45%
Echinochloa crus-galli; ALZONNE, 46DAT, Cpd A 75 g a.i./ha
  percentage phytotoxicity Obs: 35%
Echinochloa crus-galli; ALZONNE, 46DAT, Cpd A 100 g a.i./ha
  percentage phytotoxicity Obs: 82%
Echinochloa crus-galli; ALZONNE, 46DAT, Cpd A 125 g a.i./ha
  percentage phytotoxicity Obs: 85%
Echinochloa crus-galli; BOLOGNA, 54DAT, Cpd A 50 g a.i./ha
  percentage phytotoxicity Obs: 77%
Echinochloa crus-galli; BOLOGNA, 54DAT, Cpd A 75 g a.i./ha
  percentage phytotoxicity Obs: 91%
Echinochloa crus-galli; BOLOGNA, 54DAT, Cpd A 100 g a.i./ha
  percentage phytotoxicity Obs: 75%
Echinochloa crus-galli; BOLOGNA, 54DAT, Cpd A 125 g a.i./ha
  percentage phytotoxicity Obs: 100%
Polygonum lapathifolium; Cpd A 50 g a.i./ha
  percentage phytotoxicity Obs: 50%
Polygonum lapathifolium; Cpd A 75 g a.i./ha
  percentage phytotoxicity Obs: 90%
Polygonum lapathifolium; Cpd A 100 g a.i./ha
  percentage phytotoxicity Obs: 70%
Polygonum lapathifolium; Cpd A 125 g a.i./ha
  percentage phytotoxicity Obs: 95%

## CC(C)N(C(=O)COc1nnc(C(F)(F)F)s1)c1ccc(F)cc1 [Cpd B, N-isopropyl-(5-trifluoromethyl-1,3,4-thiadiazol-2-yl)-4-(4'-fluoro-oxyacetanilide)]
Setaria viridis; Cpd B 240 g a.i./ha
  percentage phytotoxicity Obs: 85%
Setaria viridis; Cpd B 360 g a.i./ha
  percentage phytotoxicity Obs: 82%
Setaria viridis; Cpd B 480 g a.i./ha
  percentage phytotoxicity Obs: 86%
Setaria viridis; Cpd B 600 g a.i./ha
  percentage phytotoxicity Obs: 82%
Amaranthus retroflexus; Cpd B 240 g a.i./ha
  percentage phytotoxicity Obs: 30%
Amaranthus retroflexus; Cpd B 360 g a.i./ha
  percentage phytotoxicity Obs: 10%
Amaranthus retroflexus; Cpd B 480 g a.i./ha
  percentage phytotoxicity Obs: 67%
Amaranthus retroflexus; Cpd B 600 g a.i./ha
  percentage phytotoxicity Obs: 45%
Echinochloa crus-galli; ALZONNE, 46DAT, Cpd B 240 g a.i./ha
  percentage phytotoxicity Obs: 45%
Echinochloa crus-galli; ALZONNE, 46DAT, Cpd B 360 g a.i./ha
  percentage phytotoxicity Obs: 65%
Echinochloa crus-galli; ALZONNE, 46DAT, Cpd B 480 g a.i./ha
  percentage phytotoxicity Obs: 77%
Echinochloa crus-galli; ALZONNE, 46DAT, Cpd B 600 g a.i./ha
  percentage phytotoxicity Obs: 90%
Echinochloa crus-galli; BOLOGNA, 54DAT, Cpd B 240 g a.i./ha
  percentage phytotoxicity Obs: 35%
Echinochloa crus-galli; BOLOGNA, 54DAT, Cpd B 360 g a.i./ha
  percentage phytotoxicity Obs: 52%
Echinochloa crus-galli; BOLOGNA, 54DAT, Cpd B 480 g a.i./ha
  percentage phytotoxicity Obs: 65%
Echinochloa crus-galli; BOLOGNA, 54DAT, Cpd B 600 g a.i./ha
  percentage phytotoxicity Obs: 75%
Polygonum lapathifolium; Cpd B 240 g a.i./ha
  percentage phytotoxicity Obs: 25%
Polygonum lapathifolium; Cpd B 360 g a.i./ha
  percentage phytotoxicity Obs: 0%
Polygonum lapathifolium; Cpd B 480 g a.i./ha
  percentage phytotoxicity Obs: 25%
Polygonum lapathifolium; Cpd B 600 g a.i./ha
  percentage phytotoxicity Obs: 40%
